Publication PMC7314595 (Angewandte Chemie (International ed. in English), 2016)
“Also recorded” adds a separate entry of the source.

How the values were obtained:
colony formation = test: Colony formation; type: cell-based
Chrom logD = type: physicochemical; conditions: pH 7.4
BRD2 BD1 = BRD2 BD1 (Homo sapiens, UniProt P25440); test: BRD2 BD1 TR-FRET; type: binding
[1] = tested on: genes involved in cell cycle and division; test: Expression of genes involved in cell cycle and division; type: cell-based
ATAD2B bromodomain = target: T1, ATAD2B bromodomain (Homo sapiens, UniProt Q9ULI0); test: ATAD2B TR-FRET; type: binding
T1 sequence (Q9ULI0 951-1066 limits assumed): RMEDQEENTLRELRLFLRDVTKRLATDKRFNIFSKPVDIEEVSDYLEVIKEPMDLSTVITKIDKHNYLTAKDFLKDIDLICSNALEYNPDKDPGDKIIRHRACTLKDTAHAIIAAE

[2] = target: T2, ATAD2 bromodomain / histone H3.3 (Homo sapiens, UniProt Q6PL18); test: Cellular NanoBRET displacement, ATAD2 bromodomain from histone H3.3; type: cell-based; conditions: NanoBRET (Promega)
T2 sequence (Q6PL18 980-1092 limits assumed): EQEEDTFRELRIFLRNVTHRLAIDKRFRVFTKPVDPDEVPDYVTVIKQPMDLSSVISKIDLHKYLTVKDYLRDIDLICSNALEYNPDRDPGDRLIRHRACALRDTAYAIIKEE

tandem BRD4 bromodomains = tandem BRD4 bromodomains (Homo sapiens, UniProt O60885); test: BRD4 tandem isothermal titration calorimetry; type: binding
CLND solubility = type: physicochemical
[3] = target: T3, full-length ATAD2 / histone H3.3 (Homo sapiens, UniProt Q6PL18); test: Cellular NanoBRET displacement, full-length ATAD2 from histone H3.3; type: cell-based
T3 sequence (Q6PL18 1-1390): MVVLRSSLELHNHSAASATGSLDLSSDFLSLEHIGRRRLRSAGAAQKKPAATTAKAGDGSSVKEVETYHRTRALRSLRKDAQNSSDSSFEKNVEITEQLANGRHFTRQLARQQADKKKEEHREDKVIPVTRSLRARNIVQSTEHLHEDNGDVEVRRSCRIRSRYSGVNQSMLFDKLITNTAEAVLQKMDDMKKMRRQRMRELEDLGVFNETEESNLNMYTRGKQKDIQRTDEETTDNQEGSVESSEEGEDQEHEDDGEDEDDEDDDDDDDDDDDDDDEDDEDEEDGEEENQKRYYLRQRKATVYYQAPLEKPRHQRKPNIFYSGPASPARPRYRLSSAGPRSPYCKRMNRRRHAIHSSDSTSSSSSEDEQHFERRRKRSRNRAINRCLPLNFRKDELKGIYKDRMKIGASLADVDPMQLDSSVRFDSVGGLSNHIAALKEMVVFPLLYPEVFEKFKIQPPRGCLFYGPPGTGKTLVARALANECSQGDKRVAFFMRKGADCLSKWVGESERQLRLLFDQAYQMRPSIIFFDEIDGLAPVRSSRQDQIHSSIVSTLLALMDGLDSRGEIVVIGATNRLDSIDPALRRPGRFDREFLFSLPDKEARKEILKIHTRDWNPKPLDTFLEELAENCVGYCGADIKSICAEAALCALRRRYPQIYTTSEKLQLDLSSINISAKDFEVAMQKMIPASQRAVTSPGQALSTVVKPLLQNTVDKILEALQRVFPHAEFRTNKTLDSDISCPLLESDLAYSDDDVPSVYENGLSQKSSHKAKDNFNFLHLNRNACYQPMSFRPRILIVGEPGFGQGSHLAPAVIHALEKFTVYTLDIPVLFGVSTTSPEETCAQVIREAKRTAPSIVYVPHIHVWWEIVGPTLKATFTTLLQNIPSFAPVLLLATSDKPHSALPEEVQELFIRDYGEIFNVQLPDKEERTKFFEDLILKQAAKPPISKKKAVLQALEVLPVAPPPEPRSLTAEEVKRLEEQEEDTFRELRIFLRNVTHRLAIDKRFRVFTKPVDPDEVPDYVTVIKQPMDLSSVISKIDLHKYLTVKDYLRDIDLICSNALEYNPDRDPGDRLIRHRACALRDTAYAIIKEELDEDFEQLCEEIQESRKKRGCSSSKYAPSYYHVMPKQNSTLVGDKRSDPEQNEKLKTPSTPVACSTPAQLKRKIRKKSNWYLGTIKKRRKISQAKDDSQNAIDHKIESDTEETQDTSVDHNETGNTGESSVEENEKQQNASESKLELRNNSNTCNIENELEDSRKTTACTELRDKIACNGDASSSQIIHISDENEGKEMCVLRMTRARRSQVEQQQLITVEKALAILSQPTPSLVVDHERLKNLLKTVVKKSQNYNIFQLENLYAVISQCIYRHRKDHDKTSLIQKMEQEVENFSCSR

[4] = tested on: internal GSK panel of 40 targets considered as potential liabilities; test: Internal GSK panel of 40 liability targets; conditions: data not shown

Chain of BRD2 BD1 (P25440 74-180 limits assumed): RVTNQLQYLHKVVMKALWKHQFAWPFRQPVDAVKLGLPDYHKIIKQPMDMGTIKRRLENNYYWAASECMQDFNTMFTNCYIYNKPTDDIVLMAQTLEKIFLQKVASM

CO[C@H]1CNC[C@@H](OCC2CCC(F)(F)CC2)[C@@H]1Nc1ncc(-c2cncc(C)c2)c2cc(C)c(=O)[nH]c12 [Compound 16]
Effects on colony formation (colony formation): only seen at high compound concentrations | chromatographic logD (Chrom logD): 3.2 | IC50 (BRD2 BD1): ≥ 39800 nM | Inhibition of genes involved in cell cycle and division [1]: only seen at high compound concentrations | IC50 (ATAD2B bromodomain): 20 nM | Displacement of labelled ATAD2 bromodomain from histone H3.3 [2]: dose-dependent displacement; also recorded: displaces the ATAD2 bromodomain construct | Interaction with tandem BRD4 bromodomains by ITC (tandem BRD4 bromodomains): no interaction detected | solubility (CLND solubility): > 439 µM | Displacement of full-length ATAD2 from histone H3.3 [3]: ineffective; also recorded: does not displace full-length ATAD2 | Off-target activity against internal GSK panel of 40 targets [4]: inactive
